# Key:
# [1] = system: PC12 cells; test: Western blot of LC3 II/LC3 I in the autophagy flow assay; type: cell-based; details: GENI group compared with the control group
# Procedure: Western blot analysis for p-AMPK α, AMPK α, p-mTOR, mTOR, p-ULK1, ULK1, and LC3-I/II was conducted according to the information described in the materials and methods section of Supplementary Information.
# 1.3. Western blot analysis.
# For PC12 cell samples, we seeded 2 × 10^6 PC12 cells in each 60 mm dish containing 5 mL of DMEM and incubated the dish for 24 h. For the dose-dependent experiment of GENI, GENI (1, 3 and 10 μM) was added to the dishes and incubated for a period of time (2 hours for p-AMPK α, AMPK α, 48 hours for p-mTOR, mTOR and p-ULK1, ULK1; 8 hours for LC3-I/II). Cells were then collected, lysed using RAPI lysis buffer and centrifuged. The supernatants of each group were used as protein samples. For the protein samples of autophagy flow assay, we seeded 2 × 10^6 PC12 cells in each 60 mm dish containing 5 mL of DMEM and incubated the dish for 24 h.
# The GENI, rapamycin and inhibitors, such as chloroquine and 3-MA were added according to the method of autophagy flow assay. After treatment of 18 h, cells were then collected, lysed using RAPI lysis buffer and centrifuged. […] The protein concentration was measured with a BCA assay kit (Beijing Cowin Biotech Company, Beijing, China). […] Bands were quantitatively measured using ImageJ software (National Institutes of Health, Bethesda, MD, USA).
# [2] = system: T1, AMPK α subunit ASP166 mutated into ALA166; test: SPR analysis, AMPK α subunit D166 replaced with A166; type: binding
# T1 construct: His (N); made in house
# Procedure: (§1) Mammalian AMPK subunits (His-α1, β1, and γ1) were cloned into a pET-3d vector, and protein expression and purification were similar to the literature.
# (§2) SPR analysis was performed with a Biacore T200 instrument (GE Healthcare). Firstly, the purred His-tagged AMPK containing α1β1γ1 protein was captured onto an activated carboxymethylated 5 (CM5) chip using amine coupling to levels ranging from 4000 RU to 6000 RU. Secondly, GENI was dissolved in PBS-P buffer solution (0.05% (v/v) Tween 20 and PBS), and the concentration of GENI was 64 μM. Thirdly, the solution of GENI was diluted to 32 μM, 16 μM, 8 μM, 4 μM, 2 μM, 1 μM and 0.5 μM with PBS-P buffer solution. The sample was filtered by pumping through a […] membrane. A gradient concentration of GENI was injected at a flow rate of 30 μL/min in a running buffer (0.05% (v/v) Tween 20 and PBS). The data were analyzed with Biacore evaluation software (T200 version 2.0) and fitted to the 1:1 Langmuir binding model, and the kinetic parameters were derived.
# The non-covalent interaction between drugs and proteins is an important way to exert drug efficacy, and its mode of action and binding affinity usually determine the utilization and biological activity of drugs. AMPK is a heterotrimer complex consisting of an α subunit containing the kinase domain and two regulatory subunits (β- and γ-). […]
# [3] = system: MAPK; test: Drug affinity responsive target stability (DARTS), MAPK; type: binding; details: 0.1–100 μM GENI, protein: pronase 5:1
# Procedure: Cells were lysed by RIPA lysis buffer, and the protein concentration was measured. The lysate was divided into six groups. Before incubation with protease (protein: pronase = 50:1 w/w for PI3K and AMPK detection, 5:1 for MAPK detection, 100:1 for p53 detection) for 25 min in 25 °C, 0.1–100 μM GENI was added to lysates and incubated for 2 h at room temperature. The samples were mixed with loading buffer and then separated on 8% SDS-PAGE for immunoblotting analysis.
# [4] = target: T2, AMPK-s6 (γ subunit- K309A) (Rattus norvegicus, UniProt P54645+P80385, K309A); test: SPR analysis, AMPK mutant s6; type: binding
# T2 construct: His (N); made in house
# T2 sequence (P54645 13-559 limits assumed): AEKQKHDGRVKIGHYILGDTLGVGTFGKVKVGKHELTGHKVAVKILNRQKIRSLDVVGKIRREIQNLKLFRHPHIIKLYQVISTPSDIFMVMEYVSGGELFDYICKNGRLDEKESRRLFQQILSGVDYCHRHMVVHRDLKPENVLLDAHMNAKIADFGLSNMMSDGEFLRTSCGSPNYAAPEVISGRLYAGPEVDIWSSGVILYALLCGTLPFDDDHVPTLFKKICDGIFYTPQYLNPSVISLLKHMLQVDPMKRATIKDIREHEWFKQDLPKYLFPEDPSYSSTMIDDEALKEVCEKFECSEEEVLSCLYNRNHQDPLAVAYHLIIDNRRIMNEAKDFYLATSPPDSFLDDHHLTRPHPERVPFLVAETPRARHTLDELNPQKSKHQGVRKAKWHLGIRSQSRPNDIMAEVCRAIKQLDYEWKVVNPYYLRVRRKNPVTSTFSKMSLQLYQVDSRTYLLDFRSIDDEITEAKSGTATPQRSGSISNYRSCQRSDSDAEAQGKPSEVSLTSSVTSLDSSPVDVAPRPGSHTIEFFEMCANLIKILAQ
# T2 sequence (P80386 whole entry partner): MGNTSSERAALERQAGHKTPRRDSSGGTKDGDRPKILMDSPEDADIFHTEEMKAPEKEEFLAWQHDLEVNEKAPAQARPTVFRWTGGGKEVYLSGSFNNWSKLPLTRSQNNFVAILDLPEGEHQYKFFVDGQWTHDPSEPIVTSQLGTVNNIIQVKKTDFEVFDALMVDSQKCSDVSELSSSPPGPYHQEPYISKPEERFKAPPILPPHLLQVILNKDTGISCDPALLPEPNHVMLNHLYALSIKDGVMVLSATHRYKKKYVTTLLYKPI
# T2 sequence (P80385 whole entry K309A): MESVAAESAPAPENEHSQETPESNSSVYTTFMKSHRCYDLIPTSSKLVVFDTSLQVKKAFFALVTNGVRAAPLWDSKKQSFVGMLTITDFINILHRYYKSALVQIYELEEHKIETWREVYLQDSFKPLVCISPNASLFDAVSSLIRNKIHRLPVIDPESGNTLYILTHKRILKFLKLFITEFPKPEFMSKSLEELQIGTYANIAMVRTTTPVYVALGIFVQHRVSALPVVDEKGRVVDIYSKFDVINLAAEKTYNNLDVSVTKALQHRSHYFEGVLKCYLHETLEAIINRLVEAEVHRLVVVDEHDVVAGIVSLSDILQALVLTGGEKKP
# Procedure: as §1, §2
# The non-covalent interaction between drugs and proteins is an important way to exert drug efficacy, and its mode of action and binding affinity usually determine the utilization and biological activity of drugs. AMPK is a heterotrimer complex consisting of an α subunit containing the kinase domain and two regulatory subunits (β- and γ-). Different action sites have varied or even opposite pharmacological effects. The molecular mechanism of interaction between the protein and molecule should be investigated thoroughly. After co-incubation of GENI and AMPK, LC-MS/MS measurements were performed to predict the binding sites. As shown in Extended Data Figure S2, ASP148, ASP157 and ASP166 of the AMPK α subunits and LYS148, ASP156, LYS309, and ASP316 of the AMPK γ subunit were possible to the binding sites of GENI. […] Thus, all of these seven sites affected the binding of GENI and AMPK to varying degrees, and they were located in the C lobe kinase domain of the AMPK α subunit, and the CBS2 and CBS4 domain of the AMPK γ subunit, respectively.
# [5] = target: T3, AMPK-WT (His-tagged AMPK containing α1β1γ1 protein) (Rattus norvegicus, UniProt P54645+P80385); test: SPR analysis of binding to purified wild-type AMPK
# T3 construct: His (N); made in house
# T3 sequence (P54645 13-559 limits assumed): as the sequence (P54645 13-559 limits assumed) above
# T3 sequence (P80386 whole entry partner): as the sequence (P80386 whole entry partner) above
# T3 sequence (P80385 whole entry): as the sequence (P80385 whole entry K309A) above, with A309K counted along it
# Procedure: as §1
# as §2, with “Thirdly, the solution of GENI was diluted to 32 μM, 16 μM, 8 μM, 4 μM, 2 μM, 1 μM and 0.5 μM with PBS-P buffer solution.” left out
compound,measurement,setting,value
"CC(C)CCOC(=O)C1=CO[C@@H](O[C@@H]2O[C@H](CO)[C@@H](O)[C@H](O)[C@H]2O)C2C(CO)=CCC12 (some centres unmarked) [GENI, Geniposidic 4-isoamyl ester]",LC3 II at the protein level,[1],significantly increased
same,dose-dependent response in SPR,[2],No significant dose-dependent response
same,stability of MAPK against pronase (DARTS),[3],dramatically enhanced the stability
same,Kd,[4]; SPR,6.21 µM
same,kon,"[4]; SPR, association rate, read-out: Ka",806 M⁻¹ s⁻¹
same,response (RU) in SPR,"[4]; point mutation of K309, versus wild-type",significantly reduced
same,Kd,[5]; 1:1 Langmuir binding model,1.07 µM
same,kon,"[5]; association rate, read-out: Ka",2320 M⁻¹ s⁻¹
